Results published in ChEMBL document CHEMBL1909046, “DrugMatrix in vitro pharmacology data”.

Key:
[1] = biological target: Beta-2 adrenergic receptor (Homo sapiens, UniProt P07550); assay: DRUGMATRIX: Adrenergic beta2 radioligand binding (ligand: [3H] CGP-12177); type: cell membranes, Membrane; conditions: cho; Not Active = under 50% inhibition at 10 µM
[2] = biological target: Protein phosphatase 3 catalytic subunit alpha (Homo sapiens, UniProt Q08209); design: species or system Escherichia coli;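 further: inhibition of calcineurin (PP2B) enzyme activity, measured with DiFMUP as the substrate; in other assays of this panel Not Active means under 50% inhibition at 10 µM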
[3] = biological target: Platelet-activating factor receptor (Homo sapiens, UniProt P25105); assay: biochemical; type: tissue-based; conditions: platelet; further: in other assays of this panel Not Active means under 50% inhibition at 10 µM
[4] = biological target: T1, Angiotensin-converting enzyme (Oryctolagus cuniculus, UniProt P12822); assay: biochemical; type: tissue-based, Lung;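 further: enzymatic inhibition of angiotensin-converting enzyme measured with FAPGG as the substrate; in other assays of this panel Not Active means under 50% inhibition at 10 µM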
T1 sequence (P12822 whole entry): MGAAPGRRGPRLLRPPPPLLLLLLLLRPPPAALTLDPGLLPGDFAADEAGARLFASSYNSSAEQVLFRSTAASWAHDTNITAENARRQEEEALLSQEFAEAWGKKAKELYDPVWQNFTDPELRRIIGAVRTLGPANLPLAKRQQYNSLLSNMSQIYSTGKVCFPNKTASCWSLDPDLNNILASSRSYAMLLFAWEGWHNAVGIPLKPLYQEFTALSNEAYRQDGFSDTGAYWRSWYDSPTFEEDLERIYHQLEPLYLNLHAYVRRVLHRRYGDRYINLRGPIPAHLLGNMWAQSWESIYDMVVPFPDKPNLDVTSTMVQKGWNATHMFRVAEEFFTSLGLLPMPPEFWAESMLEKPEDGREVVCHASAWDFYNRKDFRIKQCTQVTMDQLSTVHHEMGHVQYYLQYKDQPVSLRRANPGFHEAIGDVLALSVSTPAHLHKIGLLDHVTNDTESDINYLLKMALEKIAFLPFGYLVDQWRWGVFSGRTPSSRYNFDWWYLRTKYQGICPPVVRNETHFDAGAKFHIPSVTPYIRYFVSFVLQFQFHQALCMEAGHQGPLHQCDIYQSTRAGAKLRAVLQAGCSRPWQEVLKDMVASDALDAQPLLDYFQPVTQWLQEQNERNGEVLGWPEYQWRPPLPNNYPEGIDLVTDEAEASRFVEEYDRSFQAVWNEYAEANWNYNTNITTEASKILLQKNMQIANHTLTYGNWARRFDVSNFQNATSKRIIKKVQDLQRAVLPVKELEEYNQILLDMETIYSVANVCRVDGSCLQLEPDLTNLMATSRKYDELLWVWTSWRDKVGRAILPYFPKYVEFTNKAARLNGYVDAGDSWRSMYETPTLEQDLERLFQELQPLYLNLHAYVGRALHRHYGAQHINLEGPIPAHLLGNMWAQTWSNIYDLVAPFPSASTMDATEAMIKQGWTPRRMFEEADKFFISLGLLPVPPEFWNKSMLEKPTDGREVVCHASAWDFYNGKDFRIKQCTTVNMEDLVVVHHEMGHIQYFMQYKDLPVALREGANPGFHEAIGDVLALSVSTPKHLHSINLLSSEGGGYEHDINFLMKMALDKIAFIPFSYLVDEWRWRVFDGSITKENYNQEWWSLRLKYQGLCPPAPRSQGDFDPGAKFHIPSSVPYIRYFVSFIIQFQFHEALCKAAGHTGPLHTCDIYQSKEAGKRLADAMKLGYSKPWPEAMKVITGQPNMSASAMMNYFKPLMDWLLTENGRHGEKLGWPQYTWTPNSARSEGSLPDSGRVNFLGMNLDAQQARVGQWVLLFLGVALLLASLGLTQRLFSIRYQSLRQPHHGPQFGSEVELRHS

[5] = DRUGMATRIX: Sigma2 radioligand binding (ligand: [3H] Ifenprodil); type: cell membranes, Rattus norvegicus, Wistar, Brain, Membrane; conditions: Not Active = under 50% inhibition at 10 µM
[6] = DRUGMATRIX: beta-Lactamase enzyme inhibition (substrate: Nitrocefin); design: species or system Bacillus cereus; conditions: Not Active = under 50% inhibition at 10 µM
[7] = DRUGMATRIX: Potassium Channel [KATP] radioligand binding (ligand: [3H] Glyburide); type: cell membranes, Membrane; conditions: hit-t15; Not Active = under 50% inhibition at 10 µM
Nitric oxide synthase 1 = Nitric oxide synthase 1 (Rattus norvegicus, UniProt P29476); type: tissue-based, Cerebellum; further: in other assays of this panel Not Active means under 50% inhibition at 10 µM
[8] = biological target: T2, Alpha-1A adrenergic receptor (Rattus norvegicus, UniProt P43140); assay: DRUGMATRIX: Alpha-1A adrenergic receptor radioligand binding (ligand: prazosin); type: cell membranes, Wistar, Submaxillary gland, Membrane; conditions: Not Active = under 50% inhibition at 10 µM
T2 sequence (P43140 whole entry): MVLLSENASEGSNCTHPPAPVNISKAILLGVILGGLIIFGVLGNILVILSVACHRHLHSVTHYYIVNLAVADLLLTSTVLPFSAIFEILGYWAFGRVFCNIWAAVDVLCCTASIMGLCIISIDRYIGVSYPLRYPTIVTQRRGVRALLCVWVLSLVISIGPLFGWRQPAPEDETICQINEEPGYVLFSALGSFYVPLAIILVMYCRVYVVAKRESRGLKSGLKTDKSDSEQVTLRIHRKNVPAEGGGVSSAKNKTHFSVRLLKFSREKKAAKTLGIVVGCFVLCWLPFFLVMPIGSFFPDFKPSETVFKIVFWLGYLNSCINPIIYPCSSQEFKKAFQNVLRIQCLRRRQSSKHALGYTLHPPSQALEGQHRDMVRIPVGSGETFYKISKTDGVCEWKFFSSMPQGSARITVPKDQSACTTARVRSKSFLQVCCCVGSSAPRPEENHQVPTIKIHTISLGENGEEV

[9] = biological target: T3, Muscarinic acetylcholine receptor M5 (Homo sapiens, UniProt P08912); type: cell membranes, CHO-K1, Membrane; conditions: cho-k1; further: in other assays of this panel Not Active means under 50% inhibition at 10 µM
T3 sequence (P08912 whole entry): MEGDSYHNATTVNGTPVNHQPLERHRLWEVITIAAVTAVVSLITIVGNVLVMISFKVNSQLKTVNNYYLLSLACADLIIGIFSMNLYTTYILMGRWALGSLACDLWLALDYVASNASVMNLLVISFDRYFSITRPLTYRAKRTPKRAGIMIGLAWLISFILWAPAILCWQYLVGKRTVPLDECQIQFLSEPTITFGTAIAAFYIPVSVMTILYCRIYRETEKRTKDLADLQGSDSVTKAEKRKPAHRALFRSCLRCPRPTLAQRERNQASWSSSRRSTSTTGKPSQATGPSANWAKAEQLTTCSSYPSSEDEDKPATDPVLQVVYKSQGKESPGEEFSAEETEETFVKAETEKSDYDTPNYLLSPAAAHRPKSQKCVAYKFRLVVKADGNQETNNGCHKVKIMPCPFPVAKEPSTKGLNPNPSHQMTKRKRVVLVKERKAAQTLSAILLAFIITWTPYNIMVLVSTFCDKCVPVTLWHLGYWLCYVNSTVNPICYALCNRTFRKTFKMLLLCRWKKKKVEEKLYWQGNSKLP

Nitric oxide synthase 1, sequence (P29476 whole entry): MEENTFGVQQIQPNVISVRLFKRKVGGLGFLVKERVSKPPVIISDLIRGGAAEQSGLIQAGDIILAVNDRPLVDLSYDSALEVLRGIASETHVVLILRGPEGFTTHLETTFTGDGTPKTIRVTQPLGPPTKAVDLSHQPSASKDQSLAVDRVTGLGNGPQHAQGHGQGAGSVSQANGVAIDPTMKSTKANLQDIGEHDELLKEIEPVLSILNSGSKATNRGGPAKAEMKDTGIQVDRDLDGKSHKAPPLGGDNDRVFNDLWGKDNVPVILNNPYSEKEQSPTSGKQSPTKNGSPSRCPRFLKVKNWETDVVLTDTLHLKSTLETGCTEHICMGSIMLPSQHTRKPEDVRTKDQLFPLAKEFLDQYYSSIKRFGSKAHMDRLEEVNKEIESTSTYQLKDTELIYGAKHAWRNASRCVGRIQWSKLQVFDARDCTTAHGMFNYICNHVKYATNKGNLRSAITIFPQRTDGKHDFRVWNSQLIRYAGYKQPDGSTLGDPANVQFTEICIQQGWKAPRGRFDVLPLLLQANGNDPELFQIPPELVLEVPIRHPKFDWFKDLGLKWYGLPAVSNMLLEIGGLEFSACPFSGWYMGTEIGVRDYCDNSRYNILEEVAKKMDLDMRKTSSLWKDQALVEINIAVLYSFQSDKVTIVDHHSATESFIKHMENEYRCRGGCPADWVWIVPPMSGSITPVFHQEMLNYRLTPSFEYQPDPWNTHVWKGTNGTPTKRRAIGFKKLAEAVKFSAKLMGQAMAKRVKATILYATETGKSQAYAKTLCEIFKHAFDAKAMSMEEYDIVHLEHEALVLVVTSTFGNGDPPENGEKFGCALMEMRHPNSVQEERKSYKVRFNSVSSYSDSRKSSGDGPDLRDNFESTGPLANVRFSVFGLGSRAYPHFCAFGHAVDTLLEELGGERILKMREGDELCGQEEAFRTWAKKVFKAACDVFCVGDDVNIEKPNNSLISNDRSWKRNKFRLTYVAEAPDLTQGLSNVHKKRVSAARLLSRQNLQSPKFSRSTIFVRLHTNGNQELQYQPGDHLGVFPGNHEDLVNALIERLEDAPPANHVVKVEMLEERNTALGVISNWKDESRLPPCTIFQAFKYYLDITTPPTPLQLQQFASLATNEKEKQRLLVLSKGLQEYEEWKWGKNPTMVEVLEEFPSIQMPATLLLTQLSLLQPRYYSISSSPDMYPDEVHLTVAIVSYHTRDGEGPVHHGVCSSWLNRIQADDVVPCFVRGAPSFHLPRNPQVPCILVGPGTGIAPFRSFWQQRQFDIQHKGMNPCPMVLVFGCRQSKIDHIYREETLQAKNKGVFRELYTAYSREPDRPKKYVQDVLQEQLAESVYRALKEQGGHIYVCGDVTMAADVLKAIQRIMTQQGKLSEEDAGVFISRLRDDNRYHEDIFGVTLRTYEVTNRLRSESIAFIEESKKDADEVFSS
Beta-2 adrenergic receptor, sequence (P07550 whole entry): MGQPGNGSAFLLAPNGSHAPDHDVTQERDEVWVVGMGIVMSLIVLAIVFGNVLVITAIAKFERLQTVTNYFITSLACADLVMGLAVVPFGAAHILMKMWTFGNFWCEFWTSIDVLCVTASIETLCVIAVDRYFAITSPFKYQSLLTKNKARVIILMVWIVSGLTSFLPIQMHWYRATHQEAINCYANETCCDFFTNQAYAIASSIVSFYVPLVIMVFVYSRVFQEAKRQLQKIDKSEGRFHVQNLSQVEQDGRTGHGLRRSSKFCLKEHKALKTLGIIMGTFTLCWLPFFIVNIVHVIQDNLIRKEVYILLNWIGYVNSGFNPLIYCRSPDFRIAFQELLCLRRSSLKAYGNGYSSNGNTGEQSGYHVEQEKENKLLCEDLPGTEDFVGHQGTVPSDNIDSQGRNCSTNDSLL
Platelet-activating factor receptor, sequence (P25105 whole entry): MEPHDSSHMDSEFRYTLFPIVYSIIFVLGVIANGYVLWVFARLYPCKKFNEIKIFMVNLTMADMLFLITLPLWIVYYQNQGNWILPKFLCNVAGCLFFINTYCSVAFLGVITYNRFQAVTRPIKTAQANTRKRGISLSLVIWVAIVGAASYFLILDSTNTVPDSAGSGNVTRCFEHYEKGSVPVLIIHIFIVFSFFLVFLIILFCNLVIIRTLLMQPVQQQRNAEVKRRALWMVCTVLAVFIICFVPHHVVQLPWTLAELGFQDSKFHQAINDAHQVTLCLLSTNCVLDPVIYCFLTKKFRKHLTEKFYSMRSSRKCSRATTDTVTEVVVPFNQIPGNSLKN

## O=C1c2c(O)ccc(O)c2C(=O)c2c(NCCNCCO)ccc(NCCNCCO)c21 [MITOXANTRONE]
[1]
  IC50: Not Active
[2]
  IC50: Not Active
[3]
  IC50: Not Active
[4]
  IC50: Not Active
[5]
  IC50: Not Active
  Ki: Not Active
[6]
  IC50: Not Active
  Ki: Not Active
[7]
  IC50: Not Active
  Ki: Not Active
Nitric oxide synthase 1
  IC50: Not Active
[8]
  IC50: Not Active
[9]
  IC50: Not Active

## CN(N=O)C(=O)N[C@@H](C=O)[C@@H](O)[C@H](O)[C@H](O)CO [STREPTOZOCIN]
[1]
  IC50: Not Active
[2]
  IC50: Not Active
[3]
  IC50: Not Active
[4]
  IC50: Not Active
[5]
  IC50: Not Active
  Ki: Not Active
[6]
  IC50: Not Active
  Ki: Not Active
[7]
  IC50: Not Active
  Ki: Not Active
Nitric oxide synthase 1
  IC50: Not Active
[8]
  IC50: Not Active
[9]
  IC50: Not Active

## Nc1nnc(-c2cccc(Cl)c2Cl)c(N)n1 [LAMOTRIGINE]
[1]
  IC50: Not Active
[2]
  IC50: Not Active
[3]
  IC50: Not Active
[4]
  IC50: Not Active
[5]
  IC50: Not Active
  Ki: Not Active
[6]
  IC50: Not Active
  Ki: Not Active
[7]
  IC50: Not Active
  Ki: Not Active
Nitric oxide synthase 1
  IC50: Not Active
[8]
  IC50: Not Active
[9]
  IC50: Not Active

## O=[N+]([O-])c1cc([As](=O)(O)O)ccc1O [ROXARSONE]
[1]
  IC50: Not Active
  Ki: Not Active
[2]
  IC50: Not Active
  Ki: Not Active
[3]
  IC50: Not Active
  Ki: Not Active
[4]
  IC50: Not Active
  Ki: Not Active
[5]
  IC50: Not Active
  Ki: Not Active
[6]
  IC50: Not Active
  Ki: Not Active
[7]
  IC50: Not Active
  Ki: Not Active
Nitric oxide synthase 1
  IC50: Not Active
  Ki: Not Active
[8]
  IC50: Not Active
  Ki: Not Active
[9]
  IC50: Not Active
  Ki: Not Active

## CC(C)(C)NC(=O)[C@@H]1CN(Cc2cccnc2)CCN1C[C@@H](O)C[C@@H](Cc1ccccc1)C(=O)N[C@H]1c2ccccc2C[C@H]1O.O
[1]
  IC50: Not Active
[2]
  IC50: Not Active
[3]
  IC50: Not Active
[4]
  IC50: Not Active
[5]
  IC50: Not Active
  Ki: Not Active
[6]
  IC50: Not Active
  Ki: Not Active
[7]
  IC50: Not Active
  Ki: Not Active
Nitric oxide synthase 1
  IC50: Not Active
[8]
  IC50: Not Active
[9]
  IC50: Not Active

## Nc1ccc(S(N)(=O)=O)cc1 [SULFANILAMIDE]
[1]
  IC50: Not Active
[2]
  IC50: Not Active
[3]
  IC50: Not Active
[4]
  IC50: Not Active
[5]
  IC50: Not Active
  Ki: Not Active
[6]
  IC50: Not Active
  Ki: Not Active
[7]
  IC50: Not Active
  Ki: Not Active
Nitric oxide synthase 1
  IC50: Not Active
[8]
  IC50: Not Active
[9]
  IC50: Not Active

## Cc1ncc([N+](=O)[O-])n1CC(C)O (centres undefined) [SECNIDAZOLE]
[1]
  IC50: Not Active
[2]
  IC50: Not Active
[3]
  IC50: Not Active
[4]
  IC50: Not Active
[5]
  IC50: Not Active
  Ki: Not Active
[6]
  IC50: Not Active
  Ki: Not Active
[7]
  IC50: Not Active
  Ki: Not Active
Nitric oxide synthase 1
  IC50: Not Active
[8]
  IC50: Not Active
[9]
  IC50: Not Active

## Oc1c(I)cc(I)c2cccnc12 [IODOQUINOL]
[1]
  IC50: Not Active
[2]
  IC50: Not Active
[3]
  IC50: Not Active
[4]; read-out: IC50
  IC50: 906 nM
[5]
  IC50: Not Active
  Ki: Not Active
[6]
  IC50: Not Active
  Ki: Not Active
[7]
  IC50: Not Active
  Ki: Not Active
Nitric oxide synthase 1
  IC50: Not Active
[8]
  IC50: Not Active
[9]
  IC50: Not Active

## NNC(=O)c1ccncc1 [ISONIAZID]
[1]
  IC50: Not Active
[2]
  IC50: Not Active
[3]
  IC50: Not Active
[4]
  IC50: Not Active
[5]
  IC50: Not Active
  Ki: Not Active
[6]
  IC50: Not Active
  Ki: Not Active
[7]
  IC50: Not Active
  Ki: Not Active
Nitric oxide synthase 1
  IC50: Not Active
[8]
  IC50: Not Active
[9]
  IC50: Not Active
